Measurements: ChEMBL document CHEMBL1127754, “Design and synthesis of seco-oxysterol analogs as potential inhibitors of 3-hydroxy-3-methylglutaryl-coenzyme A (HMG-CoA) reductase gene transcription” (J Med Chem, 1994)

Columns and labels:
Format in all cases: cell-based
[1] = molecular target: T1, 3-hydroxy-3-methylglutaryl-coenzyme A reductase (Homo sapiens) (UniProt P04035); experiment: Tested for the percent inhibition against HMG-CoA reductase transcription in HepG2 cells; parameters: concentration or dose not given beside the values; conditions: concentration not given here
T1 sequence (whole entry): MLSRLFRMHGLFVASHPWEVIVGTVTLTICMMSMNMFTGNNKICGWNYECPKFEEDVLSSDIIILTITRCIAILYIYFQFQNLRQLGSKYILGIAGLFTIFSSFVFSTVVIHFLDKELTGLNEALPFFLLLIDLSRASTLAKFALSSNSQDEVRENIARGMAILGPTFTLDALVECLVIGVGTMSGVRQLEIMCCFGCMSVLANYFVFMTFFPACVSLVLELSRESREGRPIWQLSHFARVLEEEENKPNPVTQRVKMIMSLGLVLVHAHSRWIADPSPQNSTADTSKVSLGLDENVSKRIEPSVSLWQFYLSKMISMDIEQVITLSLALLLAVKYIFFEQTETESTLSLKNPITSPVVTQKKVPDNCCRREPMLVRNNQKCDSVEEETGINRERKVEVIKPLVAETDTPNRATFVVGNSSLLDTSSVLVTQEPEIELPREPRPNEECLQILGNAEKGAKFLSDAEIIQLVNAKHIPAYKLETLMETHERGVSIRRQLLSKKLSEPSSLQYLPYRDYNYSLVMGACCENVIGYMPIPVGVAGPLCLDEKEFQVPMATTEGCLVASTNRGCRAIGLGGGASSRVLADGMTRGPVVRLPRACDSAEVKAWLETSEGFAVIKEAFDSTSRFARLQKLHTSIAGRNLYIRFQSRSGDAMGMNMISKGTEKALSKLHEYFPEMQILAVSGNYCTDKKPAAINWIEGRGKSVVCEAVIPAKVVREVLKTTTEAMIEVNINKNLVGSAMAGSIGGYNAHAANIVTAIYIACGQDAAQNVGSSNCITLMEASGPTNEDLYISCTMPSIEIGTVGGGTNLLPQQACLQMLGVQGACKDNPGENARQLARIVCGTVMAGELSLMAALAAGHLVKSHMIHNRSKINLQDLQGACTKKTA

[2] = molecular target: T1, 3-hydroxy-3-methylglutaryl-coenzyme A reductase (Homo sapiens); experiment: Tested for its percent inhibition against HMG-CoA reductase transcription in HepG2 cells in HMG-CoA reductase assay; conditions: concentration not given here
[3] = molecular target: T1, 3-hydroxy-3-methylglutaryl-coenzyme A reductase (Homo sapiens); experiment: Tested for its percent inhibition against HMG-CoA reductase transcription in HepG2 cells in HMG-CoA reductase m-RNA assay; conditions: concentration not given here
[4] = molecular target: T2, 3-hydroxy-3-methylglutaryl-coenzyme A reductase (Homo sapiens, UniProt P04035); experiment: Tested for its inhibitory activity against HMG-CoA reductase transcription in HepG2 cells
T2 sequence (P04035 whole entry): T1 sequence (whole entry)

[5] = molecular target: T1, 3-hydroxy-3-methylglutaryl-coenzyme A reductase (Homo sapiens); experiment: Tested for its percent inhibition against HMG-CoA reductase transcription in HepG2 cells in LDL-receptor binding assay; conditions: concentration not given here

| Structure (SMILES) | inhibition [1] [%] | other results |
| --- | --- | --- |
| CC(C)(O)CCCC[C@H]1CC[C@@H](/C=C/[C@]2(C)CC[C@@H](O)CC2)C1 (stereo in doubt; 28) | 0 |  |
| CC(C)(O)CCCCc1cccc(/C=C/[C@]2(C)CC[C@@H](O)CC2)c1 | 46.3 | inhibition [2]: 29.7%; inhibition [3]: 72.7%; IC50 [4]: 10 µM |
| C[C@H](CCCC(C)(C)O)[C@H]1CC[C@H]2[C@@H]3CC=C4C[C@@H](O)CC[C@]4(C)[C@H]3CC[C@]12C | 70 | inhibition [2]: 48.4%; inhibition [3]: 58.2%; IC50 [4]: 0.3 µM; inhibition [5]: 64% |
| CC(C)(O)CCCCc1ccc(/C=C/[C@]2(C)CC[C@@H](O)CC2)cc1 | 0 |  |
| CC(C)(O)CCCCc1cccc(CC[C@]2(C)CC[C@@H](O)CC2)c1 | 29.3 |  |
| CC(C)CCCC[C@@H]1C[C@H](/C=C/[C@]2(C)CC[C@@H](O)CC2)[C@@H](O)[C@H]1O (stereo in doubt; 37) | 0 |  |
| CC(C)(O)CCCCc1ccc(CC[C@]2(C)CC[C@@H](O)CC2)cc1 | 0 |  |
| CC(C)(O)CCCC[C@H]1CC[C@@H](CC[C@]2(C)CC[C@@H](O)CC2)C1 | 0 |  |
| CC(C)CCCC[C@@H]1C[C@H](/C=C/[C@]2(C)CC[C@@H](O)CC2)[C@@H](O)[C@H]1O (stereo in doubt; 7) | 0 |  |
| CC(C)(O)CCCC[C@H]1CC[C@@H](/C=C/[C@]2(C)CC[C@@H](O)CC2)C1 (stereo in doubt; 6) | 0 |  |
